From patent US20250145589A1, “PYRIDINE DERIVATIVE AND USE THEREOF” (SICHUAN HUIYU PHARMACEUTICAL CO., LTD., priority 2021, published 2025) come the findings set out here.

A word on the IC50: it is the concentration at which inhibition is half-maximal.

One test has as its target PI3Kα (Homo sapiens (Human), UniProt P42336). Nature of the test: Inhibition of PI3Kα efficacy assay (ADP-Glo kinase assay). The settings on record: Table 2; read-out: PI3Kα inhibitory activity (IC50). Type of test: biochemical. The essentials:
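Eight five-fold dilutions of compound (2 mM DMSO stock) tested; kinase reaction with PI and ATP ran 60 min at RT, followed by ADP-Glo and detection reagent steps of 40 min each. Four-parameter logistic fitting gave IC50 values.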
For orientation: ADP-Glo turns the ADP formed in a reaction into a luminescent signal.

The target of the next test is PI3Kδ (Homo sapiens (Human), UniProt O00329). Nature of the test: Inhibition of PI3Kδ efficacy assay (ADP-Glo kinase assay). The settings on record: Table 2; read-out: PI3Kδ inhibitory activity (IC50). It counts as biochemical. How it is done: Test Example 2: Inhibition of PI3Kδ Efficacy assay The ADP-Glo™ kinase assay was used to assess the inhibition of PI3Kδ with our compounds. The utilized proteins and assay reagents were obtained from the ADP-Glo™ Kinase Assay Kit (Promega). Initially, a 2 mM stock solution of the test compound (dissolved in DMSO) was serially diluted in five-fold concentrations using DMSO to obtain eight working solutions 1 (200×) Subsequently, each of the eight working solutions 1 was further diluted in a 20-fold gradient by adding 5 μL into 95 μL of ddH2O, resulting in eight working solutions 2 (10×). […] Subsequently, 2 μL of 2.5×PI and ATP solution mixture were added to each well, mixed, and incubated at RT for 60 minutes. Then, 5 μL of ADP-Glo (containing 10 mM MgCl2) reagent was added to each well, mixed, and incubated at RT for 40 minutes. Finally, 10 μL of the Kinase Detection Reagent was added to each well, mixed, and incubated at RT for 40 minutes. Luminescence values were recorded using a multi-mode microplate reader with luminescence channel settings, and the inhibitory rate was calculated using the following formula: [formula] Data were analyzed using GraphPad Prism with log(inhibitor) vs. response—Variable Slope(four parameters) fitting calculations for IC50 values.

In test [1] the test system is NCI-H358 cells (KRAS G12C mutant). Nature of the test: NCI-H358 cell proliferation inhibition (CellTiter-Glo). Particulars: H358 cells (G12C mutation), 3 days, Table 6, read-out: NCI-H358 (IC50). Type of test: cell-based. On the technique in general: Cellular ATP, detected with luciferase, serves as a proxy for viable cell number.

SMILES strings stand for the structures. Where two headings read alike, the source gives them in different places.

Sequence of PI3Kα (P42336 whole entry): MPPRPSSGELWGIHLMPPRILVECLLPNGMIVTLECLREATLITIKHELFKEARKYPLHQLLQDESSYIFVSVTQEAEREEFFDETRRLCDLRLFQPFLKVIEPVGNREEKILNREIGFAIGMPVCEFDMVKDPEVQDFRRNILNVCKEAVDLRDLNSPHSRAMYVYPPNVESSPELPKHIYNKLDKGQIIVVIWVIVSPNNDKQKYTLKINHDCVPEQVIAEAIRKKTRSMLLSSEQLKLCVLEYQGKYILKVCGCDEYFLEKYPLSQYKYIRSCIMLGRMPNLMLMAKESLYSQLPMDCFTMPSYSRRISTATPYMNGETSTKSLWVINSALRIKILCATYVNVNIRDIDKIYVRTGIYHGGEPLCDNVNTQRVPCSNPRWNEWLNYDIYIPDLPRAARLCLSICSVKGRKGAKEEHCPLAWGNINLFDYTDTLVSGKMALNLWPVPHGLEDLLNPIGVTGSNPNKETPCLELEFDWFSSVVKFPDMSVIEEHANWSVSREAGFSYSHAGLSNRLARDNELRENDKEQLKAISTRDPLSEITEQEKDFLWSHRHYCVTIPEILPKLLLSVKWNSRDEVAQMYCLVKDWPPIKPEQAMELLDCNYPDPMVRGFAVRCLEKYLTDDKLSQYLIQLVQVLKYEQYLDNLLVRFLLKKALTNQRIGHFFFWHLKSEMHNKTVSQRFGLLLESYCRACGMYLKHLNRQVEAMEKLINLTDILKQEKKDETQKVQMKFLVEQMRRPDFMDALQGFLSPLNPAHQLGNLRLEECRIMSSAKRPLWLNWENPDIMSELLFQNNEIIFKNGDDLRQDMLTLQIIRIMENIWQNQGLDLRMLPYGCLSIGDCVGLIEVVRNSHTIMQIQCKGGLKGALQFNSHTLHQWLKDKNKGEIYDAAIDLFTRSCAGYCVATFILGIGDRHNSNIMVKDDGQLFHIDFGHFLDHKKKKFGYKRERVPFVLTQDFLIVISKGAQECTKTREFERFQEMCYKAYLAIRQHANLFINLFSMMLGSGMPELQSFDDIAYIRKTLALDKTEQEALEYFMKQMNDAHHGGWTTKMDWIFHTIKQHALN
Sequence of PI3Kα (P27986 whole entry partner): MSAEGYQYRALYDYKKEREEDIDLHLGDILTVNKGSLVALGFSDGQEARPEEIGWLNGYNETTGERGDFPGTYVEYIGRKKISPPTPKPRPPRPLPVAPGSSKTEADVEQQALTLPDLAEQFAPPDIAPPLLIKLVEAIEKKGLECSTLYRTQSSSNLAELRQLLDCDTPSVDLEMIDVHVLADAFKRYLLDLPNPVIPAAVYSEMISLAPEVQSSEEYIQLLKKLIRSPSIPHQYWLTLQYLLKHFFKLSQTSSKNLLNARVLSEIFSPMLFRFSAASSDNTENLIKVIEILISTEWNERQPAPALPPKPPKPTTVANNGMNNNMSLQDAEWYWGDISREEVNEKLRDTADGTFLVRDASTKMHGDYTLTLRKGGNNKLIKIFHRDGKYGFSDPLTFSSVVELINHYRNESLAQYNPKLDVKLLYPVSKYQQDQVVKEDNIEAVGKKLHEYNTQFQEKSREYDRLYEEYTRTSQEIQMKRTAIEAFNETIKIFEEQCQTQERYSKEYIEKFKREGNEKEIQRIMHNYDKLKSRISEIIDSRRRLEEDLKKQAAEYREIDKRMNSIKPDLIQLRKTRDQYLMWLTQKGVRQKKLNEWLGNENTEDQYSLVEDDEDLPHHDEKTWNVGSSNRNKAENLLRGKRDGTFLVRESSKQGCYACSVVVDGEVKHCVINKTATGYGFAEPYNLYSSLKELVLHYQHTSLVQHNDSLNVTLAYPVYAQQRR
Sequence of PI3Kδ (O00329 whole entry): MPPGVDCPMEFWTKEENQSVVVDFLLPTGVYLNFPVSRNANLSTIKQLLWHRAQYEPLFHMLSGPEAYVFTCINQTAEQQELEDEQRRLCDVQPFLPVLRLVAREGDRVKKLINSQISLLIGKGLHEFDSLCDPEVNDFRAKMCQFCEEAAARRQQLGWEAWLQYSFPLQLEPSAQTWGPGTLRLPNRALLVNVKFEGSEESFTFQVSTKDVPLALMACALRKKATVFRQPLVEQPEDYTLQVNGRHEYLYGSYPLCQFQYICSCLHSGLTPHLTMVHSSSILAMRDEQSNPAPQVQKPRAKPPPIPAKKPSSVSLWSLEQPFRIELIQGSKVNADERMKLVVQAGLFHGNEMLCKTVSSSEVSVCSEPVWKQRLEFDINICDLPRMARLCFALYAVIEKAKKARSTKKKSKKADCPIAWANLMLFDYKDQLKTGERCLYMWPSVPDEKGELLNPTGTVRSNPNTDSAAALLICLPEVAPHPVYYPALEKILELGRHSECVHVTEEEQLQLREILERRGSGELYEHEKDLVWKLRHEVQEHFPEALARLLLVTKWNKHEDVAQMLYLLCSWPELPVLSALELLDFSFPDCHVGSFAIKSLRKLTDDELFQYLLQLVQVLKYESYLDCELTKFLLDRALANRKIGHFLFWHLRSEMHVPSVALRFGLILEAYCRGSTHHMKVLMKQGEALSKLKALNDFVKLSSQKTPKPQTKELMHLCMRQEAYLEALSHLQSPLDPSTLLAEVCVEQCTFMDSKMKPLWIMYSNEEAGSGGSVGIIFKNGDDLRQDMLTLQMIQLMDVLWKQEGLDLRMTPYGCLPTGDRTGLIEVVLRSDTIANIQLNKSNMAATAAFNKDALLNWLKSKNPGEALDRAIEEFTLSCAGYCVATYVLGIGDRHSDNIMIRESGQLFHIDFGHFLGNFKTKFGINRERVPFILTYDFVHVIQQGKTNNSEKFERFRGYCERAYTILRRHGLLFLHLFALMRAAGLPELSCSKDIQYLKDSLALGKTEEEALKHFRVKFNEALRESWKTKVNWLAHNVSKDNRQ
Sequence of PI3Kδ (P27986 whole entry partner): as the sequence (P27986 whole entry partner) above

As for `C=C(COC)C(=O)N1CCN(c2ncnc3ccc(-c4cnc(OC)c(NS(=O)(=O)c5ccc(F)cc5F)c4)cc23)CC1` [Example 65, 2,4-difluoro-N-(2-methoxy-5-(4-(4-(2-(methoxy-methyl)acryloyl)piperazin-1-yl)quinazolin-6-yl)pyridin-3-yl) benzene-sulfonamide], the IC50 is 3.9 nM on PI3Kα; 53 nM at PI3Kδ; 25.1 nM in test [1] (Homo sapiens, NCI-H358, 72 h).

`C=C(OC)C(=O)N1CCN(c2ncnc3ccc(-c4cnc(OC)c(NS(=O)(=O)c5ccc(F)cc5F)c4)cc23)CC1` [Example 66, 2,4-difluoro-N-(2-methoxy-5-(4-(4-(2-methoxy-acryloyl)piperazin-1-yl)quinazolin-6-yl)pyridin-3-yl) benzene-sulfonamide]: the IC50 at PI3Kα was found to be 13.8 nM; at PI3Kδ, 14.8 nM; in test [1] (Homo sapiens, NCI-H358, 72 h) it was 13.5 nM.

In the case of `C=C(F)C(=O)N1C[C@H](C)N(c2ncnc3ccc(-c4cnc(OC)c(NS(=O)(=O)c5ccc(F)cc5F)c4)cc23)C[C@H]1C` [Example 68, 2,4-difluoro-N-(5-(4-((2S,5R)-4-(2-fluoroacryloyl)-2,5-dimethyl-piperazin-1-yl)quinazolin-6-yl)-2-methoxy-pyridin-3-yl) benzene-sulfonamide], the IC50 on PI3Kα came out at 1.4 nM; at PI3Kδ, 27.7 nM; in test [1] (Homo sapiens, NCI-H358, 72 h), 861 nM.

In the case of `COc1ncc(-c2ccc3ncnc(N4CCC5(CC=CC5=O)CC4)c3c2)cc1NS(=O)(=O)c1c(F)cccc1F` [Example 71, 2,6-difluoro-N-(2-methoxy-5-(4-(1-oxo-8-azaspiro[4,5]dec-2-en-8-yl)quinazolin-6-yl)pyridin-3-yl)benzenesulfonamide], the IC50 on PI3Kα amounted to 2.1 nM; on PI3Kδ, 31.5 nM; in test [1] (Homo sapiens, NCI-H358, 72 h) it was 75 nM.

For `COc1ncc(-c2ccc3ncnc(N4CCN(C(=O)C5=CC(=O)CCC5)CC4)c3c2)cc1NS(=O)(=O)c1ccc(F)cc1F` [Example 72, 2,4-difluoro-N-(2-methoxy-5-(4-(4-(3-oxocyclohex-1-ene-1-carbonyl)piperazin-1-yl)quinazolin-6-yl)pyridin-3-yl)benzenesulfonamide], the IC50 on PI3Kα stood at 5.9 nM; at PI3Kδ, 24.3 nM; in test [1] (Homo sapiens, NCI-H358, 72 h), 14.4 nM.

As for `COc1ncc(-c2ccc3ncnc(N4CCN(C(=O)C5=CC(=O)CCC5)CC4)c3c2)cc1NS(=O)(=O)c1ccc(Cl)s1` [Example 73, 5-chloro-N-(2-methoxy-5-(4-(4-(3-oxocyclohexane-1-en-1-carbonyl)piperazin-1-yl)quinazoline-6-yl)pyridin-3-yl)thiophene-2-sulfonamide], the IC50 at PI3Kα worked out at 2.5 nM; at PI3Kδ, 16.5 nM; in test [1] (Homo sapiens, NCI-H358, 72 h) it was 34.3 nM.

With `COc1ncc(-c2ccc3ncnc(N4CCN(C(=O)C5=CC(=O)CC5)CC4)c3c2)cc1NS(=O)(=O)c1ccc(F)cc1F` [Example 74, 2,4-difluoro-N-(2-methoxy-5-(4-(4-(3-oxocyclopent-1-ene-1-carbonyl)piperazin-1-yl)quinazolin-6-yl)pyridin-3-yl)benzenesulfonamide], the IC50 on PI3Kα came to 1.8 nM; at PI3Kδ it was 23.2 nM; in test [1] (Homo sapiens, NCI-H358, 72 h) it was 26.5 nM.

As to `COc1ncc(-c2ccc3ncnc(N4CCN(C(=O)/C=C/S(C)(=O)=O)CC4)c3c2)cc1NS(=O)(=O)c1ccc(F)cc1F` [Example 75, (E)-2,4-difluoro-N-(2-methoxy-5-(4-(4-(3-(methylsulfonyl)acryloyl)piperazin-1-yl)quinazolin-6-yl)pyridin-3-yl)benzenesulfonamide], the IC50 at PI3Kα was found to be 0.78 nM; at PI3Kδ it was 31.2 nM; in test [1] (Homo sapiens, NCI-H358, 72 h), 285 nM.

With `COc1ncc(-c2ccc3ncnc(N4CCN(C(=O)/C=C/P(C)(C)=O)CC4)c3c2)cc1NS(=O)(=O)c1ccc(F)cc1F` [Example 76, (E)-N-(5-(4-(4-(3-(dimethylphosphoryl)acryloyl)piperazin-1-yl)quinazolin-6-yl)-2-methoxypyridin-3-yl)-2,4-difluorobenzenesulfonamide], the IC50 at PI3Kα is 7.5 nM; on PI3Kδ, 25.3 nM; in test [1] (Homo sapiens, NCI-H358, 72 h), 3420 nM.

Consider `CCc1ncc(-c2ccc3ncnc(N4CCN(C(=O)/C=C/C(C)=O)CC4)c3c2)cc1NS(=O)(=O)c1ccc(F)cc1F` [Example 83, (E)-N-(2-ethyl-5-(4-(4-(4-oxopent-2-enoyl)piperazin-1-yl)quinazolin-6-yl)pyridin-3-yl)-2,4-difluorobenzenesulfonamide], for which the IC50 at PI3Kα was determined as 6.2 nM; at PI3Kδ it was 17.6 nM; in test [1] (Homo sapiens, NCI-H358, 72 h), 459 nM.

With `CC(=O)/C=C/C(=O)N1CCN(c2ncnc3ccc(-c4cnc(OC5CCCC5)c(NS(=O)(=O)c5ccc(F)cc5F)c4)cc23)CC1` [Example 107, (E)-N-(2-(cyclopentyloxy)-5-(4-(4-(4-oxopent-2-enoyl)piperazin-1-yl)quinazolin-6-yl)pyridin-3-yl)-2,4-difluorobenzenesulfonamide], the concentration for half-maximal inhibition (IC50) at PI3Kα is 126 nM; on PI3Kδ, 794 nM; in test [1] (Homo sapiens, NCI-H358, 72 h), 405 nM.

`COc1ncc(-c2ccc3ncnc(N4CCN(C(=O)/C=C/C(C)=O)[C@@H](CC#N)C4)c3c2)cc1NS(=O)(=O)c1ccc(F)cc1F` [Example 112, (S,E)-N-(5-(4-(3-(cyanomethyl)-4-(4-oxopent-2-enoyl)piperazin-1-yl)quinazolin-6-yl)-2-methoxypyridin-3-yl)-2,4-difluorobenzenesulfonamide]: the IC50 at PI3Kα was 5 nM; on PI3Kδ it was 23.9 nM; in test [1] (Homo sapiens, NCI-H358, 72 h), 72.2 nM.

For the compound `C=C(F)C(=O)N1CCN(c2ncnc3ccc(-c4cnc(OC)c(NS(=O)(=O)c5ccc(F)cc5F)c4)cc23)C[C@@H]1CC#N` [Example 113, (S)-N-(5-(4-(3-(cyanomethyl)-4-(2-fluoroacryloyl)piperazin-1-yl)quinazolin-6-yl)-2-methoxypyridin-3-yl)-2,4-difluorobenzenesulfonamide], the IC50 worked out at 2.9 nM on PI3Kα; 11.5 nM on PI3Kδ; 58 nM in test [1] (Homo sapiens, NCI-H358, 72 h).

On to `C=CC(=O)N1CCN(c2ncnc3ccc(-c4cnc(OC)c(NS(=O)(=O)c5ccc(F)cc5F)c4)cc23)C[C@@H]1CC#N` [Example 114, (S)-N-(5-(4-(4-acryloyl-3-(cyanomethyl)piperazin-1-yl)quinazolin-6-yl)-2-methoxypyridin-3-yl)-2,4-difluorobenzenesulfonamide], for which the IC50 at PI3Kα is 1.4 nM; at PI3Kδ it was 28.5 nM; in test [1] (Homo sapiens, NCI-H358, 72 h) it was 34.6 nM.

For `COc1ncc(-c2ccc3ncnc(N4CCN(C(=O)/C=C/C(C)=O)CC4)c3c2)cc1NS(=O)(=O)c1ccc(F)cn1` [Example 118, (E)-5-fluoro-N-(2-methoxy-5-(4-(4-(4-oxopent-2-enoyl)piperazin-1-yl)quinazolin-6-yl)pyridin-3-yl)pyridine-2-sulfonamide], the IC50 on PI3Kα was 1.9 nM; on PI3Kδ, 19.7 nM; in test [1] (Homo sapiens, NCI-H358, 72 h), 79.2 nM.

On to `C=CC(=O)N1CCN(c2ncnc3ccc(-c4cnc(OC)c(NS(=O)(=O)c5ccc(F)cn5)c4)cc23)CC1` [Example 119, N-(5-(4-(4-acryloylpiperazin-1-yl)quinazolin-6-yl)-2-methoxypyridin-3-yl)-5-fluoropyridine-2-sulfonamide], for which the IC50 at PI3Kα is 2.8 nM; at PI3Kδ, 11.8 nM; in test [1] (Homo sapiens, NCI-H358, 72 h), 67.9 nM.

In the case of `C=C(F)C(=O)N1CCN(c2ncnc3ccc(-c4cnc(OC)c(NS(=O)(=O)c5ccc(F)cn5)c4)cc23)CC1` [Example 120, 5-fluoro-N-(5-(4-(4-(2-fluoroacryloyl)piperazin-1-yl)quinazolin-6-yl)-2-methoxypyridin-3-yl)pyridine-2-sulfonamide], the IC50 at PI3Kα was 3 nM; on PI3Kδ, 11.5 nM; in test [1] (Homo sapiens, NCI-H358, 72 h) it was 94.9 nM.

On to `C=C1CCN(C2CN(c3ncnc4ccc(-c5cnc(OC)c(NS(=O)(=O)c6ccc(F)cc6F)c5)cc34)C2)C1=O` [Example 125], for which the results for the IC50 (on PI3Kα; on PI3Kδ; in test [1]) were 5 nM, 17 nM and 97.2 nM, respectively.

Take `COc1ncc(-c2ccc3ncnc(N4CCN(C(=O)C5OC5C(C)=O)CC4)c3c2)cc1NS(=O)(=O)c1ccc(F)cc1F` (stereo not drawn) [Example 127, N-(5-(4-(4-(3-acetyloxirane-2-carbonyl)piperazin-1-yl)quinazolin-6-yl)-2-methoxypyridin-3-yl)-2,4-difluorobenzenesulfonamide]: the IC50 on PI3Kα is 1.9 nM; at PI3Kδ it was 31.7 nM; in test [1] (Homo sapiens, NCI-H358, 72 h) it was 22.2 nM.

Take `COc1ncc(-c2ccc3ncnc(NC4CCN(C(=O)/C=C/C(C)=O)CC4)c3c2)cc1NS(=O)(=O)c1ccc(F)cc1F` [Example 130, (E)-2,4-difluoro-N-(2-methoxy-5-(4-((1-(4-oxopent-2-enoyl)piperidin-4-yl)amino)quinazolin-6-yl)pyridin-3-yl)benzenesulfonamide]: the IC50 worked out at 2.6 nM at PI3Kα; 15.2 nM on PI3Kδ; 442 nM in test [1] (Homo sapiens, NCI-H358, 72 h).
